± gives the uncertainty stated by the source.
Test: xn = mol fraction of the nth substance listed

CCCNCCC + C1CCCCC1
viscosity [mPa·s], 101 kPa
Details	x1 = 0.01137	x1 = 0.02125	x1 = 0.03212	x1 = 0.0414	x1 = 0.05092	x1 = 0.06219	x1 = 0.07269	x1 = 0.08114	x1 = 0.09193
303.15 K	0.8095 ± 0.0056	0.8028 ± 0.0055	0.7945 ± 0.0055	0.784 ± 0.0054	0.7745 ± 0.0054	0.7633 ± 0.0053	0.7535 ± 0.0053	0.7441 ± 0.0053	0.7334 ± 0.0052
313.15 K	0.7072 ± 0.005	0.6995 ± 0.005	0.692 ± 0.0049	0.6827 ± 0.0049	0.6721 ± 0.0049	0.6596 ± 0.0048	0.649 ± 0.0048	0.6399 ± 0.0047	0.6296 ± 0.0047

CCCNCCC + c1ccccc1
viscosity [mPa·s], 101 kPa
Details	x1 = 0.0105	x1 = 0.02072	x1 = 0.0306	x1 = 0.03896	x1 = 0.05078	x1 = 0.06138	x1 = 0.07232	x1 = 0.08121	x1 = 0.09171
303.15 K	0.5622 ± 0.0043	0.5617 ± 0.0043	0.561 ± 0.0043	0.5607 ± 0.0043	0.5602 ± 0.0043	0.5588 ± 0.0043	0.5575 ± 0.0043	0.5554 ± 0.0043	0.5542 ± 0.0043
313.15 K	0.4915 ± 0.0039	0.4902 ± 0.0039	0.4897 ± 0.0039	0.489 ± 0.0039	0.488 ± 0.0039	0.4872 ± 0.0039	0.4861 ± 0.0039	0.4851 ± 0.0039	0.4839 ± 0.0039

CC1CCCCC1 + CCCCCC
viscosity [mPa·s], 101 kPa
Details	293.15 K	298.15 K	303.15 K	308.15 K
x1 = 0.0401	0.3176 ± 0.0035	0.3005 ± 0.0034	0.2736 ± 0.0032	–
x1 = 0.1041	–	–	0.3003 ± 0.003	–
x1 = 0.1042	–	0.334 ± 0.007	0.318 ± 0.007	0.301 ± 0.006
x1 = 0.2002	0.3482 ± 0.0038	0.3336 ± 0.0037	0.3072 ± 0.0035	–
x1 = 0.202	–	–	0.3216 ± 0.0031	–
x1 = 0.2026	–	0.359 ± 0.007	0.341 ± 0.007	0.323 ± 0.007
x1 = 0.2772	0.3681 ± 0.004	0.3511 ± 0.0039	0.3256 ± 0.0037	–
x1 = 0.3005	–	–	0.3476 ± 0.0032	–
x1 = 0.301	–	0.373 ± 0.008	0.354 ± 0.007	0.335 ± 0.007
x1 = 0.3562	0.3915 ± 0.0042	0.3713 ± 0.0041	0.3477 ± 0.0039	–
x1 = 0.3972	–	–	0.375 ± 0.0033	–
x1 = 0.4018	–	0.401 ± 0.008	0.378 ± 0.008	0.359 ± 0.007
x1 = 0.4196	0.4131 ± 0.0045	0.3895 ± 0.0043	0.3654 ± 0.0041	–
x1 = 0.5015	–	–	0.4074 ± 0.0034	–
x1 = 0.5026	–	0.433 ± 0.008	0.41 ± 0.008	0.387 ± 0.008
x1 = 0.5574	–	–	0.4286 ± 0.0035	–
x1 = 0.5875	0.4812 ± 0.0053	0.4512 ± 0.005	0.4227 ± 0.0048	–
x1 = 0.6024	–	0.473 ± 0.009	0.446 ± 0.009	0.42 ± 0.008
x1 = 0.6173	–	–	0.4495 ± 0.0036	–
x1 = 0.6796	0.5261 ± 0.0059	0.49 ± 0.0055	0.46 ± 0.0053	–
x1 = 0.7021	–	0.517 ± 0.01	0.487 ± 0.009	0.457 ± 0.009
x1 = 0.7645	0.5729 ± 0.0065	0.5323 ± 0.0061	0.5001 ± 0.0058	–
x1 = 0.8006	–	–	0.5303 ± 0.0039	–
x1 = 0.8016	–	0.573 ± 0.01	0.539 ± 0.01	0.504 ± 0.01
x1 = 0.8397	0.6187 ± 0.0071	0.5725 ± 0.0067	0.5388 ± 0.0063	–
x1 = 0.9002	–	–	0.5837 ± 0.0041	–
x1 = 0.9011	–	0.624 ± 0.011	0.585 ± 0.011	0.545 ± 0.01
x1 = 0.9198	0.6688 ± 0.0078	0.6221 ± 0.0073	0.5865 ± 0.007	–

CCCNCCC + CCCCO
viscosity [mPa·s]
Details	303.15 K	313.15 K
101 kPa, x1 = 0.01005	2.225 ± 0.015	–
101 kPa, x1 = 0.01919	2.196 ± 0.015	–
101 kPa, x1 = 0.03366	2.165 ± 0.014	–
101 kPa, x1 = 0.0409	2.145 ± 0.014	–
101 kPa, x1 = 0.04956	2.121 ± 0.014	–
101 kPa, x1 = 0.05853	2.098 ± 0.014	–
101 kPa, x1 = 0.07021	2.064 ± 0.014	–
101 kPa, x1 = 0.07906	2.04 ± 0.014	–
101 kPa, x1 = 0.09184	2.006 ± 0.013	–
101.33 kPa, x1 = 0.0954	2.038 ± 0.024	1.621 ± 0.019
101.33 kPa, x1 = 0.1904	1.797 ± 0.021	1.426 ± 0.017
101.33 kPa, x1 = 0.2859	1.567 ± 0.019	1.252 ± 0.015
101.33 kPa, x1 = 0.4163	1.299 ± 0.016	1.031 ± 0.013
101.33 kPa, x1 = 0.5205	1.106 ± 0.014	0.8851 ± 0.011
101.33 kPa, x1 = 0.615	0.9506 ± 0.012	0.7697 ± 0.01
101.33 kPa, x1 = 0.7107	0.8177 ± 0.011	0.6675 ± 0.009
101.33 kPa, x1 = 0.8108	0.6968 ± 0.0093	0.5735 ± 0.0079
101.33 kPa, x1 = 0.8924	0.6105 ± 0.0084	0.5037 ± 0.0072

CCCCCCCCCBr + ClC(Cl)(Cl)Cl
101 kPa
Details	viscosity [mPa·s]
297.75 K, x1 = 0.0486	0.9597 ± 0.021
297.75 K, x1 = 0.0978	1.013 ± 0.022
297.75 K, x1 = 0.1959	1.12 ± 0.024
297.75 K, x1 = 0.3924	1.327 ± 0.029
297.75 K, x1 = 0.5939	1.527 ± 0.033
297.75 K, x1 = 0.7974	1.744 ± 0.038
303.55 K, x1 = 0.0959	0.926 ± 0.02
303.55 K, x1 = 0.2498	1.086 ± 0.023
303.55 K, x1 = 0.3966	1.22 ± 0.026
303.55 K, x1 = 0.5928	1.381 ± 0.03
303.55 K, x1 = 0.7755	1.526 ± 0.033
313.65 K, x1 = 0.0515	0.7651 ± 0.017
313.65 K, x1 = 0.0985	0.8039 ± 0.017
313.65 K, x1 = 0.1952	0.8852 ± 0.019
313.65 K, x1 = 0.3592	1.028 ± 0.022
313.65 K, x1 = 0.5926	1.189 ± 0.026
313.65 K, x1 = 0.7767	1.301 ± 0.028

CCOC(=O)c1ccccc1 + CC(=O)CC(C)C
viscosity [mPa·s], 101.33 kPa
Details	293.15 K	303.15 K
x2 = 0.0752	1.89 ± 0.017	1.55 ± 0.014
x2 = 0.1491	1.675 ± 0.015	1.376 ± 0.013
x2 = 0.2022	1.58 ± 0.014	1.303 ± 0.012
x2 = 0.3364	1.375 ± 0.013	1.15 ± 0.011
x2 = 0.4004	1.277 ± 0.012	1.079 ± 0.01
x2 = 0.5355	1.109 ± 0.01	0.94 ± 0.009
x2 = 0.6213	0.988 ± 0.009	0.85 ± 0.008
x2 = 0.7165	0.88 ± 0.008	0.757 ± 0.007
x2 = 0.7942	0.797 ± 0.008	0.69 ± 0.007
x2 = 0.8805	0.719 ± 0.007	0.625 ± 0.006
x2 = 0.9154	0.686 ± 0.007	0.599 ± 0.006
x2 = 0.9549	0.648 ± 0.006	0.569 ± 0.006

— the CheMixHub viscosity set
